Experimental findings from PubChem BioAssay (NCI) are described below.

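Protocol summary: plate cells (96-well), add compound at 5 concentrations, incubate 48 h, interpolate endpoints linearly. The concentration for full growth arrest is given as TGI.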 Where a SMILES comes first, the peptide text is derived from it. [ ]: non-standard residue; d: D form. The star is where a group is joined. Boc = CC(C)(C)OC(=O)*; Lac = C[CH](O)C(=O)O; OBn = c1ccc(CO*)cc1 Some results are limits rather than exact numbers.

Some test systems named below: P388/ADR leukemia; SNB-78 CNS; HOP-18 NSCLC; P388 leukemia; SN12K1 renal; UACC-257 melanoma; 786-0 renal; MDA-MB-231 breast; PC-3 prostate; T-47D breast; BT-549 breast.
Holding throughout (assay): NCI tumour cell line growth inhibition, 48 h

`N/C(=N\N=C/c1ccc(O)c(O)c1O)NO`: the TGI in the test with P388/ADR leukemia is 41.6 µM; in the test on SNB-78 CNS it was > 79.4 µM; with HOP-18 NSCLC, > 100 µM; in the test on P388 leukemia it was 29.4 µM; in the test with SN12K1 renal, 34.7 µM; in the test with UACC-257 melanoma it was > 100 µM.

In the case of `O=C1N(Cl)C(=O)C(c2ccc(Cl)cc2)(c2ccc(Cl)cc2)N1Cl`, the TGI in the test on HOP-18 NSCLC and in the test on 786-0 renal was > 100 µM in each case.

`NC(CCCCCCCCCCP(=O)(O)O)C(=O)O` (configuration not stated): the TGI in the test with MDA-MB-231 breast, in the test on PC-3 prostate, in the test with T-47D breast and with UACC-257 melanoma was > 100 µM in each case.

Turning to `CC(OC(=O)C(Cc1ccccc1)NC(=O)C(Cc1ccccc1)NC(=O)OC(C)(C)C)C(=O)OCc1ccccc1` (stereo not drawn) (Boc-Phe-Phe-[Lac]-OBn; configuration not given here), the TGI in the test on MDA-MB-231 breast, in the test on PC-3 prostate, in the test with T-47D breast and in the test with BT-549 breast was > 100 µM in each case.

On to `CC1(C)CCc2ccc(OCCC(=O)O)cc2O1`, for which the TGI in the test on SNB-78 CNS was > 100 µM.
